PMC6538953, “Metal Ions Activate the Human Taste Receptor TAS2R7” (Chemical Senses, 2019)
Changes are numbered by the printed parent chain. Like-named read-outs stand apart in the source and are kept apart here.

Experiments:
human TAS2R7 = target: T1, human TAS2R7 (Homo sapiens, UniProt Q9NYW3); experiment: Calcium mobilization assay, HEK293 cells transfected with TAS2R7 and Gα16-gust44; assay type: cell-based
T1 construct: first 45 residues of rat somatostatin receptor 3 (signal peptide) (N); expressed in transfected cells; host or cells: HEK293 (PEAKrapid, ATCC CRL-2828)
T1 sequence (Q9NYW3 1-318): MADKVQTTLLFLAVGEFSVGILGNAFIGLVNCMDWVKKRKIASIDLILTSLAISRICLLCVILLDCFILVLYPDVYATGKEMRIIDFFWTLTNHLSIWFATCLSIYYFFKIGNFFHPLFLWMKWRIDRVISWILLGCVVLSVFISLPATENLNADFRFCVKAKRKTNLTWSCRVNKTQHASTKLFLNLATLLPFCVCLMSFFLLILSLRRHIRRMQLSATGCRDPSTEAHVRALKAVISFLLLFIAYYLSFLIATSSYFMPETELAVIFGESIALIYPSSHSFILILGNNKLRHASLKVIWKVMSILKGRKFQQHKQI
Text: (§1) The coding sequences of human TAS2Rs were amplified from human genomic DNA, then subcloned into pcDNA3.1(+) vector, with the herpes simplex virus glycoprotein D epitope (HSV) at the C-terminal and a signal peptide consisting of the first 45 amino acid residues of the rat somatostatin receptor 3 at the N-terminal, essentially as described previously ([Bufe et al. 2002]). Point mutations in human TAS2R7 (NCBI Reference Sequence: NP_076408.1) were constructed by site-directed mutagenesis. All the constructs were confirmed by Sanger sequencing.
All tested compounds were purchased from Sigma–Aldrich, with the exception of diphenidol hydrochloride (Reagent World) and L-praziquantel (manufactured by Shaoxing Pharmaceutical Co. Ltd.). All the metal ions were dissolved in the assay solution (130 mM NaCl, 5 mM KCl, 2 mM CaCl2, and 10 mM glucose; pH 7.4) unless specified otherwise, and the bitter compounds (diphenidol, quinine, and chlorphenamine) were dissolved first in dimethyl sulfoxide (DMSO) as stock solution and then diluted with the assay solution; the final DMSO concentration was below 0.5%, with the exception of cromolyn, which is dissolved in the assay solution directly. For our initial screening (Table 1), Hanks’ balanced salt solution (HBSS, ThermoFisher, catalog no. 14025134) supplemented with 10 mM hydroxyethyl piperazineethanesulfonic acid (HEPES) were used as the assay buffer.
(§2) Human embryonic kidney 293 (PEAKrapid, ATCC # CRL-2828) cells were cultured in Opti-MEM medium with 4% fetal bovine serum. One day before transfection, cells were seeded on a 96-well plate at a density of 25 000 per well. Cells were then transiently transfected with a TAS2R construct (0.1 µg/well) along with a G protein Gα16-gust44 (0.1 µg/well) construct by Lipofectamine 2000 (0.5 µl/well). For controls, only Gα16-gust44 was used (mock transfection). Twenty-four hours after transfection, cells were washed with HBSS including 10 mM HEPES and loaded with Fluo-4 in the dark for 1 h. After incubation, cells were washed 2 times with HBSS (including 10 mM HEPES), incubated in the dark for another 30 min, and then washed with assay solution once more before running the assay using a FlexStation III reader. Relative fluorescence units (excitation at 494 nm, emission at 516 nm, and auto cutoff at 515 nm) were read every 2 s for 2 min. Calcium mobilization traces were recorded.
(§3) Calcium mobilization traces were raw data obtained from single wells. Changes in fluorescence (ΔF) were calculated as the peak fluorescence minus baseline fluorescence ([Lei et al. 2015]). The calcium mobilization was quantified as the percentage of change (ΔF) relative to baseline (F). […] Calcium mobilization traces and bar graphs along with dose-dependent plots were all generated by GraphPad Prism 7. Analysis of variance with Dunnett’s multiple comparisons test was used for statistical analysis. *P < 0.05.
To determine whether a TAS2R responds to metal ions, we expressed all 25 human bitter receptors individually in HEK293 cells (PEAKrapid) by transient transfection of a TAS2R along with a coupling chimeric G protein, Gα16-gust44. All TAS2Rs were cloned from human genomic DNA. Activation of human TAS2Rs was monitored by the calcium mobilization assay ([Lei et al. 2015]). We tested these receptors individually for their responses toward metal ions: ZnSO4 (20 mM), CuSO4 (20 mM), and MgCl2 (20 mM) (Table 1, Figure 1A). […] To determine the breadth of tuning of TAS2R7 toward metal ions, we also tested MnCl2 (20 mM), Al2(SO4)3 ([…]), and CaCl2 (20 mM) (Figure 1B).

[1] = target: T2, human TAS2R7 E264^7.32L mutant (Homo sapiens, UniProt Q9NYW3, E264L); experiment: Calcium mobilization assay, TAS2R7 mutant E264L; assay type: cell-based; conditions: 20 mM metal ions except 0.16 mM Al2(SO4)3; cromolyn 10 mM; Figure 6B
T2 construct: signal peptide: first 45 amino acid residues of rat somatostatin receptor 3 (N); expressed in transfected cells; host or cells: HEK293 PEAKrapid (ATCC CRL-2828), transient, co-transfected with Gα16-gust44
T2 sequence (Q9NYW3 1-318 E264L): T1 sequence (Q9NYW3 1-318) with E264L
Text: as §1, §2
as §3, with “0.05. […]” for “0.05.”

[2] = parameters: method as in Lau et al. 1991; conditions: administered systemically, animal studies; ref Lau et al. 1991; cited from earlier work
[3] = test system: mock-transfected HEK293 cells (Gα16-gust44 only); experiment: Calcium mobilization assay, mock-transfected cells (Gα16-gust44 only); assay type: cell-based, human; conditions: any concentration tested (cromolyn 10 mM)
Protocol: as §2
as §3, with “Analysis of variance with Dunnett’s multiple comparisons test was used for statistical analysis. *P < 0.05.” left out

CaSR = conditions: ref Spurney et al. 1999; cited from earlier work
[4] = target: T3, human TAS2R7 E264^7.32K mutant (Homo sapiens, UniProt Q9NYW3, E264K); experiment: Calcium mobilization assay, TAS2R7 mutant E264K; assay type: cell-based; conditions: 20 mM metal ions except 0.16 mM Al2(SO4)3; cromolyn 10 mM; Figure 6B
T3 construct: signal peptide: first 45 amino acid residues of rat somatostatin receptor 3 (N); expressed in transfected cells; host or cells: HEK293 PEAKrapid (ATCC CRL-2828), transient, co-transfected with Gα16-gust44
T3 sequence (Q9NYW3 1-318 E264K): T1 sequence (Q9NYW3 1-318) with E264K
Text: as §1, §2, §3
To assess the importance of these residues, we performed site-directed mutagenesis. We mutated the negatively charged residues E16^1.42, E264^7.32, and E271^7.39 to Q (glutamine), K (lysine), or L (leucine). The facing H94^3.37 was mutated to F (phenylalanine). HEK293 cells that expressed mutant receptors along with Gα16-gust44 were examined for their responses to metal ions (20 mM for all except 0.16 mM Al2(SO4)3) and cromolyn (10 mM, as a positive control) to assess receptor’s function. To determine the expression level of each receptor, we stained the wild-type or mutant receptor-transfected cells using an anti-HSV antibody since all the receptors are tagged with HSV at c-terminal. […]

## O=S(=O)([O-])[O-].O=S(=O)([O-])[O-].O=S(=O)([O-])[O-].[Al+3].[Al+3] [Al2(SO4)3, aluminum sulfate]
Human TAS2R7; 20 mM, Figure 1A,B
  Activation of TAS2R7 by metal ions: activated the receptor
Human TAS2R7; Figure 2A,C
  Dose dependence of TAS2R7 response: dose-dependent responses
Human TAS2R7; assay solution containing calcium, Figure 3A, read-out: EC50, TAS2R7, in the presence of calcium
  EC50: 29 µM
Human TAS2R7; assay solution containing no calcium, Figure 3A, read-out: EC50, TAS2R7, in the absence of calcium
  EC50: 55 µM
Human TAS2R7; assay solution with 2 mM CaCl2, Figure 2, read-out: EC50, TAS2R7 concentration-response
  EC50: 39 ± 15 µM
[1]
  Response of E264L mutant receptor: insensitive
[2]
  Concentration reached in serum: 50 µM
[3]
  Response of mock-transfected cells: no responses
CaSR
  Activity at CaSR: weak agonist
[4]
  Response of E264K mutant receptor: specific loss of responses
